Laboratory results: US9468621B2, “Metal-salen complex compound responsive drug and intra-corporeal behavior control system for metal-salen complex compound” (IHI Corporation, priority 2011, dated 2016)
pEC50: −log10 of the molar value. Where two headings read alike, the source gives them in different places.

Legend:
[1] = test system: POS-1 cells (mouse osteosarcoma cells); assay: MTT cell survival assay: neutralizing cytotoxicity of the ferrous-salen complex compound; assay type: cell-based; conditions: 24 hours
Description: (§1) The cells were collected 24 hours later and an MTT reagent for cell survival assay was administered, 400 μL of 0.04-mol of HCl/isopropyl alcohol was added 45 minutes later, 100 μL of the obtained mixture was dispensed to 96-well plates, and absorbance at 570 nm was measured, thereby calculating cell viability.
as §1, with “and the” for “and an”

[2] = Calcein AM fluorescence (RFU) assay of chelation of the ferrous-salen complex compound by a metal chelating agent; assay type: biochemical; conditions: for pEC50: Calcein AM, FIG. 1, read-out: EC50 (50% effective concentration of a maximum reaction value) of chelator, RFU recovery
Source text: If calcein (Calcein: fluorescent indicator) is used solely, it emits light (an RFU value increases); however, if calcein binds with a ferrous-salen complex compound, light emission diminishes (the RFU value decreases). Accordingly, if deferoxamine (deferoximine: the above-mentioned structural formula (II)) exists, iron ions of the ferrous-salen complex compound are adsorbed by the deferoxamine and ferrous-salen ligands are detached from calcein. As a result, the amount of the calcein-divalent-iron-salen complex compound decreases and the light emission […]. You can tell that as an amount of emitted light […], the metal-salen complex compound combines with the metal chelating agent.
The ferrous-salen complex compound (M=Fe, R═R′═H) indicated as the aforementioned structural formula (III) was produced based on descriptions of WO 2010/058280. […] Subsequently, 15 μM deferoxamine was administered to this ferrous-salen complex compound—calcein AM complex—and measurement was performed one hour later by using a measuring device (parkinermar ARVO) (λexc=485 nm, λem=520 nm).
A 15 μM of deferoxamine and vitamin C was administered to the ferrous-salen complex compound—calcein AM complex—which was produced in Example 1 above and measurement was performed one hour later by using the measuring device (parkinermar ARVO) (λexc=485 nm, λem=520 nm). As a result, it was also confirmed that when the ferrous-salen complex compound was added to Calcein AM, the RFU (Relative Fluorescent Unit) value was low. However, it was confirmed that when the chelator (deferoxamine and vitamin C) continued to be added, the RFU value increased.

O=C(O)c1ccc(-n2nc(-c3ccccc3O)nc2-c2ccccc2O)cc1 [deferasirox, 4-[3,5-Bis(2-hydroxyphenyl)-1,2,4-triazol-1-yl]benzoic acid]
cell viability as chelator concentration increased (neutralization of toxicity) ([1]; 7.5 μM ferrous-salen complex compound (NBEI) plus deferasirox 0.1-15 μM, FIG. 2): increased | deferasirox concentration at which the effect on cell viability did not change further ([1]; 7.5 μM ferrous-salen complex compound (NBEI)): ≥ 1.8 µM

CC(=O)N(O)CCCCCNC(=O)CCC(=O)N(O)CCCCCNC(=O)CCC(=O)N(O)CCCCCN [deferoxamine, (N-(5-aminopentyl)-N-hydroxy-N′-[5-(N-hydroxy-3-{[5-(N-hydroxyacetamido)pentyl]carbamoyl}propanamido)pentyl]butanediamide)]
RFU (Relative Fluorescent Unit) value when the chelator continued to be added ([2]; chelator added to ferrous-salen complex compound-calcein AM complex, measured one hour later, λexc=485 nm, λem=520 nm): increased | pEC50 ([2]; ferrous-salen complex compound (NBEI) 10 μM): 6.01 | pEC50 ([2]; ferrous-salen complex compound (NBEI) 50 μM): 5.79

[Fe+2].[O-]c1ccccc1C=NCCN=Cc1ccccc1[O-] [ferrous-salen complex compound]
RFU (Relative Fluorescent Unit) value when added to Calcein AM ([2]; ferrous-salen complex compound added to Calcein AM, no chelator): low | cell viability ([1]; 7.5 μM, control = 100%, FIG. 2): decreased
